# Experimental data published in the OligoGym collection.
# “And” between values parts separate entries of the source, which are not always exact repeats. Equal values may be shown once. HELM strings list units from the 5' end as sugar, base in round brackets, then linkage (d deoxyribose, r ribose, m 2'-O-methyl, p phosphodiester). Methylation of C is not given here. [moe] = 2'-O-(2-methoxyethyl) (MOE); [cEt] = constrained ethyl (cEt); [sp] = phosphorothioate linkage
# Biological target: HBV
# Details: ASO
Substance,"target mRNA inhibition (HepG2, 0.07 µM)",also measured
RNA1{[moe](C)[sp].[moe](C)[sp].[moe](G)[sp].[moe](C)[sp].[moe](A)[sp].d(G)[sp].d(T)[sp].d(A)[sp].d(T)[sp].d(G)[sp].d(G)[sp].d(A)[sp].d(T)[sp].d(C)[sp].[moe](G)[sp].[moe](G)[sp].[moe](C)}$$$$V2.0,86% and 76%,"target mRNA inhibition (HepG2, 0.0092593 µM): 5%; target mRNA inhibition (HepG2, 0.0277778 µM): 38%; target mRNA inhibition (HepG2, 0.0833333 µM): 65%; target mRNA inhibition (HepG2, 0.25 µM): 86%"
RNA1{[moe](C)[sp].[moe](A)[sp].[moe](C)[sp].[moe](T)[sp].d(A)[sp].d(G)[sp].d(T)[sp].d(A)[sp].d(A)[sp].d(A)[sp].d(C)[sp].d(T)[sp].d(G)[sp].[moe](A)[sp].[moe](G)[sp].[moe](C)}$$$$V2.0,56% and 50%,–
RNA1{[moe](A)[sp].[moe](T)[sp].[moe](G)[sp].d(A)[sp].d(G)[sp].d(G)[sp].d(C)[sp].d(A)[sp].d(T)[sp].d(A)[sp].d(G)[sp].d(C)[sp].[moe](A)[sp].[moe](G)[sp].[moe](C)[sp].[moe](A)}$$$$V2.0,53% and 44%,–
RNA1{[moe](A)[sp].[cEt](A)[sp].[cEt](T)[sp].d(T)[sp].d(T)[sp].d(A)[sp].d(T)[sp].d(G)[sp].d(C)[sp].d(C)[sp].d(T)[sp].d(A)[sp].d(C)[sp].[cEt](A)[sp].[cEt](G)[sp].[moe](C)}$$$$V2.0,70% and 73%,–
RNA1{[moe](G)[sp].[moe](C)[sp].[moe](A)[sp].[moe](G)[sp].[moe](T)[sp].d(A)[sp].d(T)[sp].d(G)[sp].d(G)[sp].d(A)[sp].d(T)[sp].d(C)[sp].d(G)[sp].d(G)[sp].[moe](C)[sp].[moe](A)}$$$$V2.0,67% and 61%,–
RNA1{[moe](T)[sp].[moe](T)[sp].d(T)[sp].d(A)[sp].d(T)[sp].d(G)[sp].d(C)[sp].d(C)[sp].d(T)[sp].d(A)[sp].d(C)[sp].[moe](A)[sp].[moe](G)[sp].[moe](C)[sp].[moe](C)[sp].[moe](T)}$$$$V2.0,46% and 47%,–
RNA1{[moe](G)[sp].[moe](A)[sp].d(G)[sp].d(G)[sp].d(T)[sp].d(G)[sp].d(A)[sp].d(A)[sp].d(G)[sp].d(C)[sp].d(G)[sp].[moe](A)[sp].[moe](A)[sp].[moe](G)[sp].[moe](T)[sp].[moe](G)[sp].[moe](C)}$$$$V2.0,67% and 63%,–
RNA1{[moe](A)[sp].[moe](A)[sp].[moe](G)[sp].[moe](A)[sp].d(T)[sp].d(G)[sp].d(A)[sp].d(G)[sp].d(G)[sp].d(C)[sp].d(A)[sp].d(T)[sp].d(A)[sp].[moe](G)[sp].[moe](C)[sp].[moe](A)[sp].[moe](G)}$$$$V2.0,44% and 37%,–
RNA1{[moe](G)[sp].[moe](A)[sp].d(G)[sp].d(T)[sp].d(T)[sp].d(C)[sp].d(C)[sp].d(G)[sp].d(C)[sp].d(A)[sp].d(G)[sp].[moe](T)[sp].[moe](A)[sp].[moe](T)[sp].[moe](G)[sp].[moe](G)}$$$$V2.0,52% and 45%,–
RNA1{[moe](T)[sp].[cEt](A)[sp].d(T)[sp].d(G)[sp].d(C)[sp].d(C)[sp].d(T)[sp].d(A)[sp].d(C)[sp].d(A)[sp].d(G)[sp].d(C)[sp].[cEt](C)[sp].[moe](T)[sp].[cEt](C)[sp].[moe](C)}$$$$V2.0,54% and 51%,–
RNA1{[moe](T)[sp].[cEt](T)[sp].d(C)[sp].d(C)[sp].d(G)[sp].d(C)[sp].d(A)[sp].d(G)[sp].d(T)[sp].d(A)[sp].d(T)[sp].d(G)[sp].[cEt](G)[sp].[moe](A)[sp].[cEt](T)[sp].[moe](C)}$$$$V2.0,50% and 39%,–
RNA1{[moe](A)[sp].[moe](T)[sp].d(G)[sp].d(A)[sp].d(G)[sp].d(G)[sp].d(C)[sp].d(A)[sp].d(T)[sp].d(A)[sp].d(G)[sp].[moe](C)[sp].[moe](A)[sp].[moe](G)[sp].[moe](C)[sp].[moe](A)}$$$$V2.0,53% and 32%,–
RNA1{[moe](A)[sp].[moe](C)[sp].d(T)[sp].d(A)[sp].d(G)[sp].d(T)[sp].d(A)[sp].d(A)[sp].d(A)[sp].d(C)[sp].d(T)[sp].[moe](G)[sp].[moe](A)[sp].[moe](G)[sp].[moe](C)[sp].[moe](C)}$$$$V2.0,57% and 47%,–
RNA1{[moe](G)[sp].[moe](G)[sp].[cEt](C)[sp].[cEt](A)[sp].d(T)[sp].d(A)[sp].d(G)[sp].d(C)[sp].d(A)[sp].d(G)[sp].d(C)[sp].d(A)[sp].d(G)[sp].[moe](G)[sp].[cEt](A)[sp].[moe](T)[sp].[moe](G)}$$$$V2.0,–,"target mRNA inhibition (HepG2, 0.009375 µM): 27%; target mRNA inhibition (HepG2, 0.01875 µM): 29%; target mRNA inhibition (HepG2, 0.0375 µM): 45%; target mRNA inhibition (HepG2, 0.075 µM): 56%; target mRNA inhibition (HepG2, 0.15 µM): 78%; target mRNA inhibition (HepG2, 0.3 µM): 84%"
RNA1{[moe](A)[sp].[moe](G)[sp].[moe](A)[sp].[moe](G)[sp].[moe](G)[sp].d(T)[sp].d(G)[sp].d(A)[sp].d(A)[sp].d(G)[sp].d(C)[sp].d(G)[sp].d(A)[sp].d(A)[sp].[moe](G)[sp].[moe](T)}$$$$V2.0,55% and 52%,–
RNA1{[moe](T)[sp].[moe](G)[sp].[moe](A)[sp].d(G)[sp].d(A)[sp].d(G)[sp].d(A)[sp].d(A)[sp].d(G)[sp].d(T)[sp].d(C)[sp].d(C)[sp].d(A)[sp].[cEt](C)[sp].[cEt](C)[sp].[cEt](A)}$$$$V2.0,35% and 41%,–

Substance,"target mRNA inhibition (HepG2, 0.07 µM)",also measured
RNA1{[moe](T)[sp].[moe](G)[sp].[moe](G)[sp].d(A)[sp].d(G)[sp].d(C)[sp].d(C)[sp].d(A)[sp].d(C)[sp].d(C)[sp].d(A)[sp].d(G)[sp].d(C)[sp].[cEt](A)[sp].[cEt](G)[sp].[cEt](G)}$$$$V2.0,60% and 67%,–
RNA1{[moe](G)[sp].[cEt](T)[sp].d(C)[sp].d(C)[sp].d(A)[sp].d(C)[sp].d(C)[sp].d(A)[sp].d(C)[sp].d(G)[sp].d(A)[sp].d(G)[sp].[cEt](T)[sp].[moe](C)[sp].[cEt](T)[sp].[moe](A)}$$$$V2.0,51% and 38%,–
RNA1{[moe](G)[sp].[moe](C)[sp].[moe](A)[sp].[moe](G)[sp].d(A)[sp].d(G)[sp].d(G)[sp].d(T)[sp].d(G)[sp].d(A)[sp].d(A)[sp].d(G)[sp].d(C)[sp].[moe](G)[sp].[moe](A)[sp].[moe](A)[sp].[moe](G)}$$$$V2.0,52%,–
RNA1{[moe](T)[sp].[cEt](T)[sp].d(A)[sp].d(T)[sp].d(G)[sp].d(C)[sp].d(C)[sp].d(T)[sp].d(A)[sp].d(C)[sp].d(A)[sp].d(G)[sp].[cEt](C)[sp].[moe](C)[sp].[cEt](T)[sp].[moe](C)}$$$$V2.0,50% and 56%,–
RNA1{[moe](G)[sp].[moe](A)[sp].[moe](A)[sp].d(C)[sp].d(T)[sp].d(G)[sp].d(G)[sp].d(A)[sp].d(G)[sp].d(C)[sp].d(C)[sp].d(A)[sp].[moe](C)[sp].[moe](C)[sp].[moe](A)[sp].[moe](G)}$$$$V2.0,51% and 39%,–
RNA1{[moe](C)[sp].[cEt](A)[sp].[cEt](C)[sp].d(T)[sp].d(G)[sp].d(A)[sp].d(A)[sp].d(C)[sp].d(A)[sp].d(A)[sp].d(A)[sp].d(T)[sp].d(G)[sp].[cEt](G)[sp].[cEt](C)[sp].[moe](A)}$$$$V2.0,65% and 75%,–
RNA1{[moe](A)[sp].[moe](A)[sp].[moe](T)[sp].[moe](T)[sp].[moe](T)[sp].d(A)[sp].d(T)[sp].d(G)[sp].d(C)[sp].d(C)[sp].d(T)[sp].d(A)[sp].d(C)[sp].d(A)[sp].[moe](G)[sp].[moe](C)[sp].[moe](C)}$$$$V2.0,63% and 50%,–
RNA1{[moe](A)[sp].[moe](G)[sp].[moe](G)[sp].[moe](T)[sp].d(G)[sp].d(A)[sp].d(A)[sp].d(G)[sp].d(C)[sp].d(G)[sp].d(A)[sp].d(A)[sp].d(G)[sp].[moe](T)[sp].[moe](G)[sp].[moe](C)[sp].[moe](A)}$$$$V2.0,58% and 56%,–
RNA1{[moe](A)[sp].[moe](T)[sp].[moe](T)[sp].d(T)[sp].d(A)[sp].d(T)[sp].d(G)[sp].d(C)[sp].d(C)[sp].d(T)[sp].d(A)[sp].d(C)[sp].[moe](A)[sp].[moe](G)[sp].[moe](C)[sp].[moe](C)}$$$$V2.0,38% and 47%,–
RNA1{[moe](A)[sp].[moe](G)[sp].[moe](A)[sp].d(G)[sp].d(G)[sp].d(T)[sp].d(G)[sp].d(A)[sp].d(A)[sp].d(G)[sp].d(C)[sp].d(G)[sp].[moe](A)[sp].[moe](A)[sp].[moe](G)[sp].[moe](T)}$$$$V2.0,51% and 44%,–
RNA1{[moe](G)[sp].[moe](A)[sp].[moe](G)[sp].[moe](T)[sp].d(T)[sp].d(C)[sp].d(C)[sp].d(G)[sp].d(C)[sp].d(A)[sp].d(G)[sp].d(T)[sp].d(A)[sp].[moe](T)[sp].[moe](G)[sp].[moe](G)[sp].[moe](A)}$$$$V2.0,62% and 51%,–
RNA1{[moe](A)[sp].[moe](T)[sp].[moe](G)[sp].[moe](A)[sp].[moe](G)[sp].d(G)[sp].d(C)[sp].d(A)[sp].d(T)[sp].d(A)[sp].d(G)[sp].d(C)[sp].d(A)[sp].d(G)[sp].[moe](C)[sp].[moe](A)}$$$$V2.0,52% and 56%,–
RNA1{[moe](A)[sp].[moe](G)[sp].[moe](G)[sp].d(A)[sp].d(G)[sp].d(T)[sp].d(T)[sp].d(C)[sp].d(C)[sp].d(G)[sp].d(C)[sp].d(A)[sp].d(G)[sp].[cEt](T)[sp].[cEt](A)[sp].[cEt](T)}$$$$V2.0,59% and 58%,–
RNA1{[moe](G)[sp].[moe](A)[sp].[moe](G)[sp].d(G)[sp].d(C)[sp].d(A)[sp].d(T)[sp].d(A)[sp].d(G)[sp].d(C)[sp].d(A)[sp].d(G)[sp].d(C)[sp].[cEt](A)[sp].[cEt](G)[sp].[cEt](G)}$$$$V2.0,75% and 74%,–
RNA1{[moe](A)[sp].[moe](C)[sp].[moe](C)[sp].[moe](A)[sp].d(A)[sp].d(T)[sp].d(T)[sp].d(T)[sp].d(A)[sp].d(T)[sp].d(G)[sp].d(C)[sp].d(C)[sp].[moe](T)[sp].[moe](A)[sp].[moe](C)[sp].[moe](A)}$$$$V2.0,39% and 38%,–
